Results: US10780090B2, “Heteroaryl compounds useful as inhibitors of SUMO activating enzyme” (Millennium Pharmaceuticals, Inc., priority 2014, dated 2020)

Molecular target: recombinant human SAE enzyme (Homo sapiens (Human), UniProt Q9UBT2)
Assay: SAE HTRF enzyme assay
Type: biochemical
Conditions: for inhibition at 0.111 µM: read-out: Percent Inhibition; for IC50: class symbols A/B/C
Summary of the method: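 This HTRF format monitors Sumo-Flag–Ubc9-GST thioester formation catalysed by 0.11 nM human SAE with 0.5 μM ATP over 105 min at 24° C. Inhibition is expressed at a single concentration or as IC50.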

Chain of recombinant human SAE enzyme (Q9UBT2 whole entry): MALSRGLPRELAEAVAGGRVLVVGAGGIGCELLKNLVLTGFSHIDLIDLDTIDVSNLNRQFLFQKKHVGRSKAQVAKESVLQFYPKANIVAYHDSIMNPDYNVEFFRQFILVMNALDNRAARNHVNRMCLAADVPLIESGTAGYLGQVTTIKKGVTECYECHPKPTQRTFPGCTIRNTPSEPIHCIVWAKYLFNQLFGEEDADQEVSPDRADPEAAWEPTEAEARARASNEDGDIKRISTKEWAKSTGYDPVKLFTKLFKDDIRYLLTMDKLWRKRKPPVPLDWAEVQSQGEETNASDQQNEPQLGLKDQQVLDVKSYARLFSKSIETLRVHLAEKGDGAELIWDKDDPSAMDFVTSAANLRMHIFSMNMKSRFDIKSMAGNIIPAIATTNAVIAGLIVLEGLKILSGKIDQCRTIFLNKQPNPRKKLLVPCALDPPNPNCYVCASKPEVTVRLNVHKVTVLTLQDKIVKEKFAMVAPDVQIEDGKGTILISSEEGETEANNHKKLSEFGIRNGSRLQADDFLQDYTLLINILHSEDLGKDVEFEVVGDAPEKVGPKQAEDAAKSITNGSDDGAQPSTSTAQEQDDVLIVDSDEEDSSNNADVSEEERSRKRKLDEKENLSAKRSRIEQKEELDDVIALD
Chain of recombinant human SAE enzyme (Q9UBE0 whole entry partner): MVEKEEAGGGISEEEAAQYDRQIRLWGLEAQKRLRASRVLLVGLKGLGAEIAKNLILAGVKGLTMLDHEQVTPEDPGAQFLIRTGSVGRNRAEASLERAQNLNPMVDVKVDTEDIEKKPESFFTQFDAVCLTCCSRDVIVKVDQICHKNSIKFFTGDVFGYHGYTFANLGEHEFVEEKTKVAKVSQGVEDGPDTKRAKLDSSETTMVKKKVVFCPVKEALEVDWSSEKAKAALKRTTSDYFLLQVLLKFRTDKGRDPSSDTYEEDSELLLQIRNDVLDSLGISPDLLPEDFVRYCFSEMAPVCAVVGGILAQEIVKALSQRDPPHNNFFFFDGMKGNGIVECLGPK

| Compound | inhibition at 0.111 µM (Concentration 0.111 μM) [%] | IC50 [nM] | Percent Inhibition (Concentration 0.111 μM) |
| --- | --- | --- | --- |
| Cc1cnn(Cc2csc(C(=O)c3cncnc3N[C@@H]3C[C@H](COS(N)(=O)=O)[C@@H](O)C3)c2)c1 [I-74, [(1R,2S,4R)-2-hydroxy-4-{[5-({4-[(4-methyl-1H-pyrazol-1-yl)methyl]-2-thienyl}carbonyl)pyrimidin-4-yl]amino}cyclopentyl]methyl sulfamate] | 98 | < 10 | – |
| Cc1oc(C(=O)c2cncnc2N[C@@H]2C[C@H](COS(N)(=O)=O)[C@@H](O)[C@@H]2F)cc1Cc1cccc(Cl)c1 [I-75, [(1R,2R,3R,4R)-4-({5-[4-(3-chlorobenzyl)-5-methyl-2-furoyl]pyrimidin-4-yl}amino)-3-fluoro-2-hydroxycyclopentyl]methyl sulfamate] | 98 | < 10 | – |
| NS(=O)(=O)OC[C@H]1C[C@@H](Nc2ncncc2C(=O)c2cc(Cc3cccc(Br)c3)c(Cl)s2)[C@H](O)[C@@H]1O [I-76, {(1R,2R,3S,4R)-4-[(5-{[4-(3-bromobenzyl)-5-chloro-2-thienyl]carbonyl}pyrimidin-4-yl)amino]-2,3-dihydroxycyclopentyl}methyl sulfamate] | 99 | < 10 | – |
| CN(C)Cc1sc(C(=O)c2cncnc2N[C@@H]2C[C@H](COS(N)(=O)=O)[C@@H](O)C2)cc1Cc1cccc(Cl)c1 [I-77, [(1R,2S,4R)-4-{[5-({4-(3-chlorobenzyl)-5-[(dimethylamino)methyl]-2-thienyl}carbonyl)pyrimidin-4-yl]amino}-2-hydroxycyclopentyl]methyl sulfamate] | 98 | < 10 | – |
| Cc1cnn(Cc2cc(C(=O)c3cncnc3N[C@@H]3C[C@H](COS(N)(=O)=O)[C@@H](O)C3)sc2C)c1 [I-78, [(1R,2S,4R)-2-hydroxy-4-{[5-({5-methyl-4-[(4-methyl-1H-pyrazol-1-yl)methyl]-2-thienyl}carbonyl)pyrimidin-4-yl]amino}cyclopentyl]methyl sulfamate] | 98 | – | – |
| NS(=O)(=O)OC[C@H]1C[C@@H](Nc2ncncc2C(=O)c2cc(Cc3cccc(Cl)c3)co2)C[C@@H]1O [I-79, [(1R,2S,4R)-4-({5-[4-(3-chlorobenzyl)-2-furoyl]pyrimidin-4-yl}amino)-2-hydroxycyclopentyl]methyl sulfamate] | 97 | – | – |
| COc1ccccc1OCc1csc(C(=O)c2cncnc2N[C@@H]2C[C@H](COS(N)(=O)=O)[C@@H](O)C2)c1 [I-80, [(1R,2S,4R)-2-hydroxy-4-{[5-({4-[(2-methoxyphenoxy)methyl]-2-thienyl}carbonyl)pyrimidin-4-yl]amino}cyclopentyl]methyl sulfamate] | 98 | < 10 | – |
| CSc1cccc(Cc2csc(C(=O)c3cncnc3N[C@@H]3C[C@H](COS(N)(=O)=O)[C@@H](O)C3)c2)c1 [I-81, [(1R,2S,4R)-2-hydroxy-4-{[5-({4-[3-(methylsulfanyl)benzyl]-2-thienyl}carbonyl)pyrimidin-4-yl]amino}cyclopentyl]methyl sulfamate] | 98 | < 10 | – |
| NS(=O)(=O)OC[C@H]1C[C@@H](Nc2ncncc2C(=O)c2ccc(Cc3cccc(Br)c3)o2)C[C@@H]1O [I-82, [(1R,2S,4R)-4-({5-[5-(3-bromobenzyl)-2-furoyl]pyrimidin-4-yl}amino)-2-hydroxycyclopentyl]methyl sulfamate] | 99 | – | – |
| NS(=O)(=O)OC[C@H]1C[C@@H](Nc2ncncc2C(=O)c2cc(CN3CCc4ccc(Cl)cc43)cs2)C[C@@H]1O [I-83, [(1R,2S,4R)-4-{[5-({4-[(6-chloro-2,3-dihydro-1H-indol-1-yl)methyl]-2-thienyl}carbonyl)pyrimidin-4-yl]amino}-2-hydroxycyclopentyl]methyl sulfamate] | 98 | < 10 | – |
| NS(=O)(=O)OC[C@H]1C[C@@H](Nc2ncncc2C(=O)c2cc(Cc3cccc(Cl)c3F)cs2)C[C@@H]1O [I-84, {(1R,2S,4R)-4-[(5-{[4-(3-chloro-2-fluorobenzyl)-2-thienyl]carbonyl}pyrimidin-4-yl)amino]-2-hydroxycyclopentyl}methyl sulfamate] | 98 | < 10 | – |
| NS(=O)(=O)OC[C@H]1C[C@@H](Nc2ncncc2C(=O)c2ccc(Cc3ccccc3)o2)[C@H](O)[C@@H]1O [I-87, [(1R,2R,3S,4R)-4-{[5-(5-benzyl-2-furoyl)pyrimidin-4-yl]amino}-2,3-dihydroxycyclopentyl]methyl sulfamate] | 94 | – | – |
| NS(=O)(=O)OC[C@H]1C[C@@H](Nc2ncncc2C(=O)c2cc(Cc3ccccc3)cs2)C[C@@H]1O [I-88, [(1R,2S,4R)-4-({5-[(4-benzyl-2-thienyl)carbonyl]pyrimidin-4-yl}amino)-2-hydroxycyclopentyl]methyl sulfamate] | 98 | < 10 | – |
| NS(=O)(=O)OC[C@H]1C[C@@H](Nc2ncncc2C(=O)c2cc(Cc3cccc(Cl)c3)c(F)s2)C[C@@H]1O [I-89, {(1R,2S,4R)-4-[(5-{[4-(3-chlorobenzyl)-5-fluoro-2-thienyl]carbonyl}pyrimidin-4-yl)amino]-2-hydroxycyclopentyl}methyl sulfamate] | 98 | < 10 | – |
| NS(=O)(=O)OC[C@H]1C[C@@H](Nc2ncncc2C(=O)c2cc(Cn3ccc4cccnc43)cs2)C[C@@H]1O [I-92, {(1R,2S,4R)-2-hydroxy-4-[(5-{[4-(1H-pyrrolo[2,3-b]pyridin-1-ylmethyl)-2-thienyl]carbonyl}pyrimidin-4-yl)amino]cyclopentyl}methyl sulfamate] | 98 | < 10 | – |
| NS(=O)(=O)OC[C@H]1C[C@@H](Nc2ncncc2C(=O)c2ccc(Cc3cccc(Cl)c3)o2)C[C@@H]1O [I-93, [(1R,2S,4R)-4-({5-[5-(3-chlorobenzyl)-2-furoyl]pyrimidin-4-yl}amino)-2-hydroxycyclopentyl]methyl sulfamate] | 98 | – | – |
| NS(=O)(=O)OC[C@H]1C[C@@H](Nc2ncncc2C(=O)c2cc([S@+]([O-])c3cccc(Cl)c3)c(Cl)s2)C[C@@H]1O [I-94, [(1R,2S,4R)-4-({[5-({5-Chloro-4-[(R)-(3-chlorophenyl)sulfinyl]-2-thienyl}carbonyl)pyrimidin-4-yl]amino}-2-hydroxycyclopentyl]methyl sulfamate and [(1R,2S,4R)-4-{[5-({5-chloro-4-[(S)-(3-chlorophenyl)sulfinyl]-2-thienyl}carbonyl)pyrimidin-4-yl]amino}-2-hydroxycyclopentyl]methyl sulfamate] | – | < 10 | 98 |
| NS(=O)(=O)OC[C@H]1C[C@@H](Nc2ncncc2C(=O)c2cc(Cc3ccccc3)c(Cl)s2)C[C@@H]1O [I-96, [(1R,2S,4R)-4-({5-[(4-benzyl-5-chloro-2-thienyl)carbonyl]pyrimidin-4-yl}amino)-2-hydroxycyclopentyl]methyl sulfamate] | 97 | – | – |
| NS(=O)(=O)OC[C@H]1C[C@@H](Nc2ncncc2C(=O)c2cc(Cc3cccc(F)c3)cs2)C[C@@H]1O [I-97, {(1R,2S,4R)-4-[(5-{[4-(3-fluorobenzyl)-2-thienyl]carbonyl}pyrimidin-4-yl)amino]-2-hydroxycyclopentyl}methyl sulfamate] | 97 | – | – |
